From patent US7553843B2, “Process for the preparation of purified crystalline CCI-779” (Wyeth, priority 2005, dated 2009)

Key:
[1] = system: human glioblastoma cell line; conditions: in vitro; cited from earlier work
[2] = system: human tumor xenografts; conditions: nude mice; cited from earlier work
[3] = Storage stability of purified crystalline CCI-779, HPLC strength; assay type: physicochemical
From the text: The good crystallinity of the purified CCI-779 contributes to the improved stability of the purified CCI-779 and longer shelf life, and contains less oxidative impurities. In one embodiment, the purified crystalline CCI-779 of the present invention degrades less than about 3%, less than about 2%, or less than about 1% over a period of about 1 month. Desirably, the purified crystalline CCI-779 retains greater than 97% strength over a period of about 3 months, and more desirably about 6 months at about 5° C. as measured by high performance liquid chromatography (HPLC), among other techniques. The strength is similarly maintained at elevated temperatures up to about 70° C., desirably up to about 51° C., more desirably temperatures up to about 25° C. and greater relative humidities up to about 60%, and most desirably temperatures at about 5° C., or combinations thereof. In one embodiment, the purified crystallized CCI-779 prepared according to the present invention maintains its stability at a temperature of about 25° C. and relative humidity of about 60% for up to about 3 months, and more desirably up to about 6 months.
Following nucleation, the batch was aged for 34 minutes as indicated by the FBRM® instrument to obtain stabilization of the chord count. The pentanediol and heptane were added as described in Example 1. The isolated purified crystalline CCI-779 was washed and dried at 40 EC under vacuum for 48 hours. A yield of 176.3 g of purified crystalline CCI-779 was obtained (87.6%). See Table 1 for the HPLC data for the purified CCI-779 obtained immediately after crystallization and samples tested after 2 weeks and 1 month at varying conditions.
This example was performed using the same protocol as described in Example 2. However, filtration of the crude CCI-779 solution in acetone was completed in 30 minutes by using a medium grit fritted funnel. Following distillation of the acetone, the batch was held as an amorphous foam/oil for 2 hours under reduced pressures. Diethyl ether was then added to the foam/oil and the diethyl ether solution was evaluated for acetone content (8.5 vol %). The diethylether (containing acetone) was then removed by distillation to obtain an amorphous foam. This foam was maintained under reduced pressures for 30 minutes and diethyl ether again added. The diethylether was again monitored for acetone contact and determined to be less than 3.6 vol % acetone. The crystallization was the continued as in Example 2. The induction time for nucleation, i.e., the time required to obtain a chord count for particles of about 1 to about 5 μm particles of greater than about 1500 chords/s was 26 minutes. Following the nucleation, the slurry was stirred for additional time to ensure stabilization of the nucleation. Following isolation and drying as outlined above, a final yield of 175.1 g of purified crystalline CCI-779 was obtained (87.3%). See Table 2, for the HPLC data for the purified crystalline CCI-779 obtained immediately after crystallization and samples tested after 2 weeks and 1 month at varying conditions.

[4] = system: orthotopic glioma model; conditions: nude mice; cited from earlier work
[5] = system: histologically diverse tumor cells; conditions: in vitro, cited from earlier work

HPLC Strength ([3]; Example 2 batch, Initial (immediately after crystallization)): 101.09%
HPLC Strength ([3]; Example 2 batch, storage 5° C., 1 Month): 97.42%
HPLC Strength ([3]; Example 2 batch, storage 5° C., 2 Weeks): 101.09%
HPLC Strength ([3]; Example 2 batch, storage 25° C./60% RH, 1 Month): 97.87%
HPLC Strength ([3]; Example 2 batch, storage 25° C./60% RH, 2 Weeks): 101.07%
HPLC Strength ([3]; Example 3 batch, Initial (immediately after crystallization)): 100.45%
HPLC Strength ([3]; Example 3 batch, storage 5° C., 1 Month): 97.55%
HPLC Strength ([3]; Example 3 batch, storage 5° C., 2 Weeks): 100.45%
HPLC Strength ([3]; Example 3 batch, storage 25° C./60% RH, 1 Month): 97.81%
HPLC Strength ([3]; Example 3 batch, storage 25° C./60% RH, 2 Weeks): 101.30%
SMILES: CO[C@H]1C[C@@H]2CC[C@@H](C)[C@@](O)(O2)C(=O)C(=O)N2CCCC[C@H]2C(=O)O[C@H]([C@H](C)C[C@@H]2CC[C@@H](OC(=O)C(C)(CO)CO)[C@H](OC)C2)CC(=O)[C@H](C)/C=C(\C)[C@@H](O)[C@@H](OC)C(=O)[C@H](C)C[C@H](C)/C=C/C=C/C=C/1C [CCI-779, Rapamycin 42-ester with 3-hydroxy-2-(hydroxymethyl)-2-methylpropionic acid]
growth factor (platelet-derived)-induced stimulation of a human glioblastoma cell line [1]: markedly suppressed
activity against human tumor xenografts of diverse histological types [2]: has activity
growth of several human pancreatic tumors and one of two breast cancer lines [2]: inhibited
activity in orthotopic glioma model [4]: active
growth of tumor cells ([5]; CNS cancer, T-cell leukemia, breast, prostate, melanoma lines most sensitive): inhibit the growth
cell cycle effect [5]: arrested cells in the G1 phase
